Measured values reported in patent publication US20100099756A1, “USES OF INCENSOLE, INCENSOLE ACETATE AND DERIVATIVES THEREOF” (YISSUM RESEARCH DEVELOPMENT COMPANY OF THE HEBREW …, priority 2006, published 2010).

Assays:
[1] = molecular target: T1, rat TRPV4 (Rattus norvegicus, UniProt Q9ERZ8); assay: Calcium imaging of TRPV4 transfected HEK293 cells; type: cell-based; details: IA 100 μM, compared to vehicle
T1 construct: expressed in transfected cells; host or cells: HEK293 cell line
Protocol: All error bars indicate SEM; p values in all subfigures but c represent analysis with one-way ANOVA Bonferroni's post hoc.
TRPV3-YFP [O'dell, D. K., Rimmerman, N., Pickens, S. R. & Walker J. M. Fatty acyl amides of endogenous tetrahydroisoquinolines are active at the recombinant human TRPV1 receptor. Bioorg. Med. Chem. 15, 6164-6169 (2007)], TRPV4 and mock-transfected cell lines were cultured in DMEM 1× with L-glutamine (Mediatech, Inc. Herndon, Va.), containing 1% penicillin-streptomycin (Invitrogen, Carlsbad, Calif.) and 10% foetal bovine serum.
Calcium imaging of HEK 293 cells. TRPV1, TRPV3, and TRPV4 expressing HEK293 cells were plated 24-48 h before imaging in 96 well plates, loaded with 3 μM Fura-2 AM and imaged as previously described [O'dell, D. K., Rimmerman, N., Pickens, S. R. & Walker J. M. Fatty acyl amides of endogenous tetrahydroisoquinolines are active at the recombinant human TRPV1 receptor. Bioorg. Med. Chem. 15, 6164-6169 (2007)].

[2] = molecular target: TRPV1 (Homo sapiens, UniProt Q8NER1); assay: Whole-cell voltage-clamp, TRPV1(+) cells; type: cell-based; details: IA 200 μM
TRPV1, sequence (Q8NER1 whole entry): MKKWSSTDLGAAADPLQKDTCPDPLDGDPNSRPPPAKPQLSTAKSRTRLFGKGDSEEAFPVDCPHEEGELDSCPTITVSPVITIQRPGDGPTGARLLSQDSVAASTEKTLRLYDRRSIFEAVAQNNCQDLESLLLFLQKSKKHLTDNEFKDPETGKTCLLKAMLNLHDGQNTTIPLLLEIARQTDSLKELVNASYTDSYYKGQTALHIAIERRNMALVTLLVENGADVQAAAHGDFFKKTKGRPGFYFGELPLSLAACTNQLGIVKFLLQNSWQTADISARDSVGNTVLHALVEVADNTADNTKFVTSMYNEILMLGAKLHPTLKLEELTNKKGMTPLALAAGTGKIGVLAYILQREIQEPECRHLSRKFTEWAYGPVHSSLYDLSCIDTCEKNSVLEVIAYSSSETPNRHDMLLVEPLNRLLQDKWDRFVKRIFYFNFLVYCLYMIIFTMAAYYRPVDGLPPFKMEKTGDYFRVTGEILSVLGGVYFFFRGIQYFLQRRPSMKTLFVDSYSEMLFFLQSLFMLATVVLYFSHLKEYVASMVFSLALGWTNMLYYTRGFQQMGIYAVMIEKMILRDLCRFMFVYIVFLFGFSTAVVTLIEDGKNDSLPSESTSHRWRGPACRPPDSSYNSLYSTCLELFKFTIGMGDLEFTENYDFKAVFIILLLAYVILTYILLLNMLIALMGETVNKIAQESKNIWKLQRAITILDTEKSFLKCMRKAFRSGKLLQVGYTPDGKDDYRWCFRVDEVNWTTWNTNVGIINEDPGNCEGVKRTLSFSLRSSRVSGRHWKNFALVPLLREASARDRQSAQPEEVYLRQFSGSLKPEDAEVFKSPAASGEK
Protocol: TRPV3(+) response to IA is shown for reference. *, p<0.001. Error bars represent SEM, n=4-5.
Electrophysiological recording. Currents were recorded using whole-cell voltage-clamp. Pipettes were pulled from microcapillary glass (A-M Systems). A coverslip containing cells was transferred to a 300 μL chamber that was constantly perfused (1-2 mL/min) with external solution. Voltage protocols were generated and data were digitized and recorded using Pulse (HEKA Elektronik) software in conjunction with an Axopatch 200A amplifier (Axon Instruments), and the data analyzed using an in-house Visual Basic (Microsoft) analysis program.
The pipette solution contained (in mM): 121.5 Kgluconate, 10 HEPES, 17 KCl, 9 NaCl, 1 MgCl2, 0.2 EGTA, 2 MgATP, and 0.5 NaATP, pH 7.2. The external solution contained (in mM): 120 NaCl, 5 KCl, 1 MgCl2, 2 CaCl2, 10 Glucose and 20 HEPES, pH 7.4 with NaOH. The measured charge (pC) was defined as the charge elicited between -85 and -45 mV by a ramping voltage stimulus (−85 mV to +35 mV, 0.54 mV/msec; holding potential -55 mV). Currents were sampled at 5 kHz. Experimental and control cells were alternated whenever possible. Control values were obtained from adjacent cells with no detectable YFP fluorescence, presumed to be non-TRPV3-expressing.

T1 sequence (Q9ERZ8 whole entry): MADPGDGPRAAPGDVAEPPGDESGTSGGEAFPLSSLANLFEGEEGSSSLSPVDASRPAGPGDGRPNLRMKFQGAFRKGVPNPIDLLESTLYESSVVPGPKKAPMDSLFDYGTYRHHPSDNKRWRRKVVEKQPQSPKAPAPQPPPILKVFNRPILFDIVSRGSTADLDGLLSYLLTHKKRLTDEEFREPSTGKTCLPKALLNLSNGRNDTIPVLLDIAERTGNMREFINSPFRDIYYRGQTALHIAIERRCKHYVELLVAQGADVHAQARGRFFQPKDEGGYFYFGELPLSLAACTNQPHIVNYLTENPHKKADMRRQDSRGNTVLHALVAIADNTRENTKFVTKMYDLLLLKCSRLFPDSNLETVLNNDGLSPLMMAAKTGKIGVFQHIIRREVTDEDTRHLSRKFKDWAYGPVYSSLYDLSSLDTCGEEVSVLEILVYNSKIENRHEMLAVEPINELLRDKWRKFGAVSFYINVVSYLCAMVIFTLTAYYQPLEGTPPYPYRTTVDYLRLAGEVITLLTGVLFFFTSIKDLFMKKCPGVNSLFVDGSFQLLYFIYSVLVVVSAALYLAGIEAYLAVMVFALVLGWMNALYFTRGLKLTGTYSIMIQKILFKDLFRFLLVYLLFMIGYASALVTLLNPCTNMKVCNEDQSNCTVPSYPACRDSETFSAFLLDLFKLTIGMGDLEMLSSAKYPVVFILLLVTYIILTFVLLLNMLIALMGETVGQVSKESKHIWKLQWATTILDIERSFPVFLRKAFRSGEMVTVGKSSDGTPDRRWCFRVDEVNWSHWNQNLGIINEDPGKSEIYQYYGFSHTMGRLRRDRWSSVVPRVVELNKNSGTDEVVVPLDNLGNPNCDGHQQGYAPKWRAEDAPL

With `CC(=O)OC1CC/C(C)=C/CC/C(C)=C/CC2(C(C)C)CCC1(C)O2` (centres unmarked) [IA, incensole acetate] the “calcium influx in TRPV4 transfected HEK293 cells” value [1] was “very modest calcium influx” and the “current activation in TRPV1(+) cells” value [2] was “does not activate currents”.
